This is an account of results in paper PMC3499368, “Evolution of Minimal Specificity and Promiscuity in Steroid Hormone Receptors” (PLoS Genetics, 2012).

One test has as its system AncSR1-LBD. Briefly: luciferase reporter gene assay, Gal4-DBD fusion of AncSR1-LBD in CHO-K1 cells, activation. Type of test: cell-based. From the text: To experimentally test these hypotheses, we synthesized cDNAs for the AncSR1 and AncSR2 LBD protein sequences, expressed them as Gal4-DBD fusion constructs, and characterized their sensitivity to hormones using luciferase reporter gene assays.
Background: Reporter assays use an easily measured gene product as a stand-in for the process of interest.

A further test concerns AncSR2-LBD. Briefly: luciferase reporter gene assay, Gal4-DBD fusion of AncSR2-LBD in CHO-K1 cells, activation. It counts as cell-based. As to conditions: for EC50: AncSR2, representative dose activation curves (Fig. S4) and Table S5 sections c-i. The text has this:
To experimentally test these hypotheses, we synthesized cDNAs for the AncSR1 and AncSR2 LBD protein sequences, expressed them as Gal4-DBD fusion constructs, and characterized their sensitivity to hormones using luciferase reporter gene assays. […] It was unresponsive to a broad array of androgens, progestagens, and corticosteroids, as well as cholesterol (Figure 2A, Figure S3).
For AncSR2, we identified all plausible alternate reconstructions (those with posterior probability >0.20 excluding biochemically similar K/R, D/E, S/T, and I/L differences) and introduced each alternate state individually into the AncSR2 background using the Quikchange Mutagenesis kit (Stratagene), verified clones by sequencing, and repeated the activation assays with each version of AncSR2 (Figure S6). The ML AncSR2 sequence reconstructed on the ML tree had high baseline activation in the absence of ligand; this phenotype is almost certainly an artifact, because constitutive baseline activity is not present in any of AncSR2's extant descendants; it is well-established that some amino acid replacements can cause nuclear receptors to become constitutive by marginally stabilizing the active conformation in the absence of hormone. […] The “constitutive” Leu79 state is weakly supported on the ML tree (PP = 0.59), and has no support (PP = 0.00) on the phylogeny that is most parsimonious in terms of gene duplications and losses; in contrast, the “non-constitutive” state Met79 has PP = 0.41 on the ML tree and PP = 1.00 on the rearranged gene duplication/loss tree (Figure S12, Table S8). The AncSR2 sequence used for all experiments reported in the text therefore contains state Met79. The other alternate reconstructions were then reintroduced into this AncSR2 sequence: none qualitatively changed the receptor's sensitivity to the various classes of steroid hormones, except for A171V, which conferred constitutive activity (Figure S6).

In test [1] the target is T1, human estrogen receptor alpha (hERα) (Homo sapiens, UniProt P03372).
T1 sequence (P03372 311-595 limits assumed): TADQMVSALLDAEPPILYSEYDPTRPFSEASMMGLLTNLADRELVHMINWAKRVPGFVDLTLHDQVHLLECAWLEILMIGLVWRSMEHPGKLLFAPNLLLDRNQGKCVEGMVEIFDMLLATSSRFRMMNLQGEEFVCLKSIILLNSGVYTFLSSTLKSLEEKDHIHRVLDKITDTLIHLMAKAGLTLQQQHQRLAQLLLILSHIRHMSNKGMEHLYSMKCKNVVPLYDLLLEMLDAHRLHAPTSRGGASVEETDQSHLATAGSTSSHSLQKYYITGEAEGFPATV
The experiment in a line: luciferase reporter assay, human ERα LBD. It counts as cell-based. As to conditions: Fig. S8.

Test [2] deals with T2, estrogen receptor ligand binding domain (Capitella capitata, UniProt C0IRV2).
T2 sequence (C0IRV2 151-381): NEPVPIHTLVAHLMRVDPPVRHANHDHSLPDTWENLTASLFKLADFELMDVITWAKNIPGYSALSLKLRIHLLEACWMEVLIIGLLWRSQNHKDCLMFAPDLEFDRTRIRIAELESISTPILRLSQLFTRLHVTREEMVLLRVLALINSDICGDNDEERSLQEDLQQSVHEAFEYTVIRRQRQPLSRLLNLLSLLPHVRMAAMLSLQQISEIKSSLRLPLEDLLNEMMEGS
The experiment in a line: activation of the estrogen receptor ligand binding domain of Capitella capitata.
Excerpt: (§1) Fig. S8 Activation of the estrogen receptor ligand binding domains of two annelids (Capitella capitata, a polychaete worm &
(§2) Values adjacent to the hormone legends (red squares and black triangles) indicate the EC50 value for

Test [3] has as its target T3, estrogen receptor ligand binding domain (Platynereis dumerilii, UniProt C0IR13).
T3 sequence (C0IR13 197-482): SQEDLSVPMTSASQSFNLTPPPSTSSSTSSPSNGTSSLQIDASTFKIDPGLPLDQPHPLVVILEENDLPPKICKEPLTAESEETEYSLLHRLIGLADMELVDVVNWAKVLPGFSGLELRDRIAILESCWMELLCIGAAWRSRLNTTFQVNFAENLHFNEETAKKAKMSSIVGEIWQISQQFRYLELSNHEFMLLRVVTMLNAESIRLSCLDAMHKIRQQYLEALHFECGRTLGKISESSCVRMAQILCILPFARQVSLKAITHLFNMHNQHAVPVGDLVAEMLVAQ
The experiment in a line: activation of the estrogen receptor ligand binding domain of Platynereis dumerilii.
Excerpt: as §1, §2

The target of test [4] is T4, human mineralocorticoid receptor (hMR) (Homo sapiens, UniProt P08235).
T4 sequence (P08235 736-984): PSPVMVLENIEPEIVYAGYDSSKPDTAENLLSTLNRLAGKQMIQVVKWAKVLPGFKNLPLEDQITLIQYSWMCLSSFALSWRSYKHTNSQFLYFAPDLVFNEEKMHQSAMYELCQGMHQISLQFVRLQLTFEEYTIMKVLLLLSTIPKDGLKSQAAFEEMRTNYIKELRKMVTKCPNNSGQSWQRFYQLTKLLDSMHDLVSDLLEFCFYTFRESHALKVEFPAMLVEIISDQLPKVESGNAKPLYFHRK
The experiment in a line: luciferase reporter assay, human MR LBD. Type of test: cell-based.

Where [5] appears, read: AncSR2, Table S5 section c, pairs H1/H2: 23/8, 19/18, listed as given under Hormone 1.

The structures appear in SMILES notation. Read-outs that look alike come from different tables or passages of the source.

With `CC(=O)[C@H]1CCC2C3CCc4cc(O)ccc4C3CC[C@@]21C` (stereo partly shown) [NPT, 19-nor-1,3, 5(10)-pregnatriene-3-ol-20-one], the concentration for a half-maximal effect (EC50) was 179 nM with AncSR1-LBD (AncSR1, representative dose activation curves (Fig. S3) and Table S5 section b); 182 nM in the test with AncSR2-LBD; 5.4 nM in test [1]; 8.7 nM in test [2]; 1.2 nM in test [3]. Moreover, the “activation of AncSR1 (in words)” value with AncSR1-LBD (luciferase reporter) is “almost as potent an AncSR1 activator as endogenous estrogens”. In the test with AncSR2-LBD (setting [5]), the “Ratio H1/H2 of EC50, preference for non-aromatized A-ring” value is listed as 113.75. The “Ratio H2/H1 of EC50, preference for non-aromatized A-ring” value with AncSR2-LBD (setting [5]) stood at 0.01.
With `C[C@]12CCC(=O)C=C1CC[C@@H]1[C@@H]2[C@@H](O)C[C@@]2(C)[C@H]1CC[C@]2(O)C(=O)CO` [cortisol], the EC50 with AncSR2-LBD (read-out: EC50) came out at 9.8 nM; in test [4] it was 37 nM.

One may read the EC50 as the concentration that produces a half-maximal response.
